Numbers after ± are expanded uncertainties.
Experiment: xn = mol fraction of the nth substance listed
Settings: Liquid, Vibrating tube method

CCCCCCCO [heptan-1-ol] + CCCCCCC
mass density (333.15 K, 140000 kPa, x1 = 0.3215): 779.8 ± 1.9 kg/m3 | mass density (333.15 K, 140000 kPa, x1 = 0.5226): 804.5 ± 1.9 kg/m3 | mass density (333.15 K, 140000 kPa, x1 = 0.6698): 823.2 ± 1.9 kg/m3 | mass density (333.15 K, 140000 kPa, x1 = 0.8469): 851.4 ± 4.2 kg/m3 | mass density (333.15 K, 140000 kPa, x1 = 1): 864.3 ± 1.9 kg/m3 | mass density (353.15 K, 100 kPa, x1 = 0.1493): 654.4 ± 1.4 kg/m3 | mass density (353.15 K, 100 kPa, x1 = 0.3215): 676.1 ± 1.4 kg/m3 | mass density (353.15 K, 100 kPa, x1 = 0.5226): 705.8 ± 1.4 kg/m3 | mass density (353.15 K, 100 kPa, x1 = 0.6698): 728.5 ± 1.5 kg/m3 | mass density (353.15 K, 100 kPa, x1 = 0.8469): 762.3 ± 4.1 kg/m3 | mass density (353.15 K, 100 kPa, x1 = 1): 778.1 ± 1.5 kg/m3 | mass density (353.15 K, 1000 kPa, x1 = 0.1493): 655.7 ± 1.4 kg/m3 | mass density (353.15 K, 1000 kPa, x1 = 0.3215): 677.3 ± 1.4 kg/m3 | mass density (353.15 K, 1000 kPa, x1 = 0.5226): 706.8 ± 1.4 kg/m3 | mass density (353.15 K, 1000 kPa, x1 = 0.6698): 729.4 ± 1.5 kg/m3 | mass density (353.15 K, 1000 kPa, x1 = 0.8469): 763.1 ± 4 kg/m3 | mass density (353.15 K, 1000 kPa, x1 = 1): 778.8 ± 1.5 kg/m3 | mass density (353.15 K, 5000 kPa, x1 = 0.1493): 661.2 ± 1.4 kg/m3 | mass density (353.15 K, 5000 kPa, x1 = 0.3215): 682.2 ± 1.4 kg/m3 | mass density (353.15 K, 5000 kPa, x1 = 0.5226): 711.3 ± 1.4 kg/m3 | mass density (353.15 K, 5000 kPa, x1 = 0.6698): 733.6 ± 1.5 kg/m3 | mass density (353.15 K, 5000 kPa, x1 = 0.8469): 766.7 ± 4 kg/m3 | mass density (353.15 K, 5000 kPa, x1 = 1): 782.3 ± 1.5 kg/m3 | mass density (353.15 K, 10000 kPa, x1 = 0.1493): 667.4 ± 1.4 kg/m3 | mass density (353.15 K, 10000 kPa, x1 = 0.3215): 687.9 ± 1.4 kg/m3 | mass density (353.15 K, 10000 kPa, x1 = 0.5226): 716.4 ± 1.5 kg/m3 | mass density (353.15 K, 10000 kPa, x1 = 0.6698): 738.3 ± 1.5 kg/m3 | mass density (353.15 K, 10000 kPa, x1 = 0.8469): 771 ± 4 kg/m3 | mass density (353.15 K, 10000 kPa, x1 = 1): 786.3 ± 1.5 kg/m3 | mass density (353.15 K, 15000 kPa, x1 = 0.1493): 673.1 ± 1.5 kg/m3 | mass density (353.15 K, 15000 kPa, x1 = 0.3215): 693.2 ± 1.5 kg/m3 | mass density (353.15 K, 15000 kPa, x1 = 0.5226): 721.3 ± 1.5 kg/m3 | mass density (353.15 K, 15000 kPa, x1 = 0.6698): 742.9 ± 1.5 kg/m3 | mass density (353.15 K, 15000 kPa, x1 = 0.8469): 775.2 ± 4 kg/m3 | mass density (353.15 K, 15000 kPa, x1 = 1): 790.2 ± 1.6 kg/m3 | mass density (353.15 K, 20000 kPa, x1 = 0.1493): 678.4 ± 1.5 kg/m3 | mass density (353.15 K, 20000 kPa, x1 = 0.3215): 698.2 ± 1.5 kg/m3 | mass density (353.15 K, 20000 kPa, x1 = 0.5226): 725.8 ± 1.5 kg/m3 | mass density (353.15 K, 20000 kPa, x1 = 0.6698): 747.1 ± 1.5 kg/m3 | mass density (353.15 K, 20000 kPa, x1 = 0.8469): 779 ± 4 kg/m3 | mass density (353.15 K, 20000 kPa, x1 = 1): 793.9 ± 1.6 kg/m3 | mass density (353.15 K, 25000 kPa, x1 = 0.1493): 683.2 ± 1.5 kg/m3 | mass density (353.15 K, 25000 kPa, x1 = 0.3215): 702.8 ± 1.5 kg/m3 | mass density (353.15 K, 25000 kPa, x1 = 0.5226): 730.1 ± 1.5 kg/m3 | mass density (353.15 K, 25000 kPa, x1 = 0.6698): 751.1 ± 1.5 kg/m3 | mass density (353.15 K, 25000 kPa, x1 = 0.8469): 782.7 ± 4.1 kg/m3 | mass density (353.15 K, 25000 kPa, x1 = 1): 797.3 ± 1.6 kg/m3 | mass density (353.15 K, 30000 kPa, x1 = 0.1493): 687.9 ± 1.5 kg/m3 | mass density (353.15 K, 30000 kPa, x1 = 0.3215): 707.1 ± 1.5 kg/m3 | mass density (353.15 K, 30000 kPa, x1 = 0.5226): 734.2 ± 1.5 kg/m3 | mass density (353.15 K, 30000 kPa, x1 = 0.6698): 755 ± 1.5 kg/m3 | mass density (353.15 K, 30000 kPa, x1 = 0.8469): 786.3 ± 4.1 kg/m3 | mass density (353.15 K, 30000 kPa, x1 = 1): 800.7 ± 1.6 kg/m3 | mass density (353.15 K, 35000 kPa, x1 = 0.1493): 692.2 ± 1.5 kg/m3 | mass density (353.15 K, 35000 kPa, x1 = 0.3215): 711.1 ± 1.5 kg/m3 | mass density (353.15 K, 35000 kPa, x1 = 0.5226): 738 ± 1.5 kg/m3 | mass density (353.15 K, 35000 kPa, x1 = 0.6698): 758.6 ± 1.5 kg/m3 | mass density (353.15 K, 35000 kPa, x1 = 0.8469): 789.6 ± 4.1 kg/m3 | mass density (353.15 K, 35000 kPa, x1 = 1): 804 ± 1.6 kg/m3 | mass density (353.15 K, 40000 kPa, x1 = 0.1493): 696.2 ± 1.5 kg/m3 | mass density (353.15 K, 40000 kPa, x1 = 0.3215): 715 ± 1.5 kg/m3 | mass density (353.15 K, 40000 kPa, x1 = 0.5226): 741.6 ± 1.5 kg/m3 | mass density (353.15 K, 40000 kPa, x1 = 0.6698): 762 ± 1.6 kg/m3 | mass density (353.15 K, 40000 kPa, x1 = 0.8469): 792.8 ± 4.1 kg/m3 | mass density (353.15 K, 40000 kPa, x1 = 1): 807.1 ± 1.6 kg/m3 | mass density (353.15 K, 45000 kPa, x1 = 0.1493): 700.2 ± 1.5 kg/m3 | mass density (353.15 K, 45000 kPa, x1 = 0.3215): 718.7 ± 1.6 kg/m3 | mass density (353.15 K, 45000 kPa, x1 = 0.5226): 745.1 ± 1.6 kg/m3 | mass density (353.15 K, 45000 kPa, x1 = 0.6698): 765.4 ± 1.6 kg/m3 | mass density (353.15 K, 45000 kPa, x1 = 0.8469): 795.9 ± 4.1 kg/m3 | mass density (353.15 K, 45000 kPa, x1 = 1): 810 ± 1.7 kg/m3 | mass density (353.15 K, 50000 kPa, x1 = 0.1493): 704 ± 1.6 kg/m3 | mass density (353.15 K, 50000 kPa, x1 = 0.3215): 722.4 ± 1.6 kg/m3 | mass density (353.15 K, 50000 kPa, x1 = 0.5226): 748.5 ± 1.6 kg/m3 | mass density (353.15 K, 50000 kPa, x1 = 0.6698): 768.7 ± 1.6 kg/m3 | mass density (353.15 K, 50000 kPa, x1 = 0.8469): 799 ± 4.1 kg/m3 | mass density (353.15 K, 50000 kPa, x1 = 1): 813 ± 1.7 kg/m3 | mass density (353.15 K, 55000 kPa, x1 = 0.1493): 707.5 ± 1.6 kg/m3 | mass density (353.15 K, 55000 kPa, x1 = 0.3215): 725.7 ± 1.6 kg/m3 | mass density (353.15 K, 55000 kPa, x1 = 0.5226): 751.7 ± 1.6 kg/m3 | mass density (353.15 K, 55000 kPa, x1 = 0.6698): 771.8 ± 1.6 kg/m3 | mass density (353.15 K, 55000 kPa, x1 = 0.8469): 801.9 ± 4.1 kg/m3 | mass density (353.15 K, 55000 kPa, x1 = 1): 815.8 ± 1.7 kg/m3 | mass density (353.15 K, 60000 kPa, x1 = 0.1493): 711 ± 1.6 kg/m3 | mass density (353.15 K, 60000 kPa, x1 = 0.3215): 729 ± 1.6 kg/m3 | mass density (353.15 K, 60000 kPa, x1 = 0.5226): 754.9 ± 1.6 kg/m3 | mass density (353.15 K, 60000 kPa, x1 = 0.6698): 774.8 ± 1.6 kg/m3 | mass density (353.15 K, 60000 kPa, x1 = 0.8469): 804.7 ± 4.1 kg/m3 | mass density (353.15 K, 60000 kPa, x1 = 1): 818.6 ± 1.7 kg/m3 | mass density (353.15 K, 65000 kPa, x1 = 0.1493): 714.3 ± 1.6 kg/m3 | mass density (353.15 K, 65000 kPa, x1 = 0.3215): 732.2 ± 1.6 kg/m3 | mass density (353.15 K, 65000 kPa, x1 = 0.5226): 757.9 ± 1.6 kg/m3 | mass density (353.15 K, 65000 kPa, x1 = 0.6698): 777.7 ± 1.6 kg/m3 | mass density (353.15 K, 65000 kPa, x1 = 0.8469): 807.5 ± 4.1 kg/m3 | mass density (353.15 K, 65000 kPa, x1 = 1): 821.2 ± 1.7 kg/m3 | mass density (353.15 K, 70000 kPa, x1 = 0.1493): 717.5 ± 1.7 kg/m3 | mass density (353.15 K, 70000 kPa, x1 = 0.3215): 735.2 ± 1.7 kg/m3 | mass density (353.15 K, 70000 kPa, x1 = 0.5226): 760.9 ± 1.7 kg/m3 | mass density (353.15 K, 70000 kPa, x1 = 0.6698): 780.5 ± 1.7 kg/m3 | mass density (353.15 K, 70000 kPa, x1 = 0.8469): 810.2 ± 4.1 kg/m3 | mass density (353.15 K, 70000 kPa, x1 = 1): 823.8 ± 1.7 kg/m3 | mass density (353.15 K, 80000 kPa, x1 = 0.1493): 723.5 ± 1.7 kg/m3
